Reference: patent US20210386367A1, “DEVICES AND SYSTEMS FOR GASTROINTESTINAL MICROBIOME DETECTION AND MANIPULATION” (Progenity, Inc., priority 2018, published 2021)
In brackets after ≈: the same amount, converted by molar mass. Several values for one entry are separate records, joined by “and”; a condition that tells them apart may be missing. Equal values may be shown once. Read-outs that look alike come from different tables or passages of the source.

Legend:
Type in all cases: cell-based
[1] = system: Streptococcus spp. clinical isolates; test: MIC distribution against clinical isolates
From the text: (n=19 S. pyogenes, n=20 S. agalactiae and n=20 Viridans group Streptococcus) clinical isolates (μg/mL).
As used herein, “minimum inhibitory concentration” or “MIC” refers to the lowest concentration of an antimicrobial agent, for example, an antimicrobial agent as described herein, required to inhibit the growth of an organism. […] “MIC90” represents the MIC value at which ≥90% of the strains within a test population are inhibited; the 90th percentile.
Many susceptibility testing methods are known in the art and can be used as described herein (see, e.g., Jorgensen and Ferraro (2009) Clinical Infectious Diseases 49:1749-1755; and Maurer et al. (2017) Infectious Disease Reports 9:6839; the entire contents of each of the foregoing are incorporated herein by reference). For example, antimicrobial susceptibility can be determined using conventional culture based methods such as the broth or agar dilution test. In these dilution tests, the bacterial isolate of interest is inoculated onto different media that include serial dilutions of an antimicrobial agent, and incubated under appropriate conditions (e.g., overnight at 37° C.) to allow for growth to occur. Following the incubation period, the media is examined to determine bacterial growth. The lowest concentration of antibiotic that prevents growth represents the minimal inhibitory concentration (MIC). Broth dilution tests can be miniaturized and mechanized allowing for reproducibility and high throughput.

Streptococcus spp. = test: Broth microdilution MIC, 54 clinical isolates; conditions: for Mode: modal MIC
Experimental: (§1) Minimal inhibitory concentration (MIC) values were determined by broth microdilution or agar dilution in accordance with guidelines from the Clinical and Laboratory Standards Institute (CLSI; (1) “Methods for Dilution Antimicrobial Susceptibility Tests for Bacteria That Grow Aerobically; Approved Standard; 11th ed.” CLSI standard M07-A11, 2018; (2) “Performance Standards for Antimicrobial Susceptibility Testing; Twenty-Eighth Informational Supplement,” CLSI document M100-S28, 2018; and (3) “Methods for Antimicrobial Susceptibility Testing of Anaerobic Bacteria; Approved Standard—Eighth Edition,” CLSI document M11-A8, 2012).
(§2) Tested aerobically by broth microdilution: • Escherichia coli, n=50 • Klebsiella spp., n=50 • Pseudomonas aeruginosa, n=50 • Streptococcus spp., n=50 • Staphylococcus aureus, n=50 • Enterococcus faecalis, n=50 • Enterobacter aerogenes, n=50 • Proteus mirabilis, n=50
(§3) Broth microdilution testing of aerobic bacteria was conducted in cation-adjusted Mueller Hinton broth (MHBII). For testing streptococci, lysed horse blood (LHB) was added to MHBII broth at a final concentration of 3%. Where LHB was used, it was added after filtering.
(§4) Broth microdilution susceptibility testing in 96-well microplates was conducted in accordance with CLSI methods (1) and (2). Automated liquid handlers were used to conduct serial dilutions and liquid transfers, including the Multidrop 384 (Labsystems, Helsinki, Finland), Biomek 2000, and the Biomek FX (Beckman Coulter, Fullerton, Calif.). All wells in columns 2 through 12 of a standard 96-well microdilution plate (Costar 3795) were filled with 150 μL of the appropriate diluent. Then, 300 μL of the test agents were added to the wells of column 1 of the plates at 100× the highest final concentration to be tested. Serial two-fold dilutions were made across the rows through column 11 using the Biomek 2000. The wells of column 12 contained no drug and served as the growth control wells. This plate served as the “mother plate” from which MIC assay plates or “daughter plates” were made.
(§5) The daughter plates were loaded with 190 μL per well of the appropriate medium using the Multidrop 384. The daughter plates were created using the Biomek FX which transferred 2 μL of drug solution from each well of a mother plate to each corresponding well of the daughter plate in a single step. A standardized inoculum of each test organism was prepared per CLSI methods (1) to equal a 0.5 McFarland standard, followed by a dilution of 1:20 for aerobes and 1:10 for anaerobes. The plates were then inoculated with 10 μL of the diluted inoculum using the Biomek 2000 from low to high drug concentration, resulting in a final concentration of approximately 5×10^5 CFU/mL per well. An un-inoculated plate was incubated in parallel for each medium for the purpose of assessing solubility of the drug in the test media.
(§6) Inoculated plates were stacked 3 or 4 high, covered with a sterile lid on the top plate, placed into boxes with CO2 planchets (streptococci) or plastic bags (all other isolates). Plates were incubated at 35° C. for 16-24 hr in ambient air for aerobes or for 42-48 hr in the anaerobic environment of the Bactron II anaerobe chamber (Sheldon Manufacturing Co.; Cornelius, Oreg.). Following incubation, the microplates were removed from the incubator and viewed from the bottom using a plate viewer. The MIC values were read and recorded as the lowest concentration of drug that inhibited visible growth of the organism as per CLSI methods (1) and (2).

Streptococcus pyogenes = test: Broth microdilution MIC, 19 clinical isolates
Experimental: as §1, §2, §3, §4, §5, §6

Streptococcus agalactiae = test: Broth microdilution MIC, 20 clinical isolates; conditions: for % S: MXF by FDA breakpoints; for Mode: modal MIC
Experimental: as §1, §2, §3, §4, §5, §6

[2] = MIC 1 μg/mL, 54 Streptococcus spp. isolates
[3] = 54 Streptococcus spp. clinical isolates
[4] = 54 Streptococcus spp. clinical isolates, MXF by FDA breakpoints
[5] = 20 Streptococcus agalactiae clinical isolates
[6] = MIC 0.008 μg/mL, 54 Streptococcus spp. isolates
[7] = MIC ≤0.004 μg/mL, 54 Streptococcus spp. isolates
[8] = MIC 0.015 μg/mL, 54 Streptococcus spp. isolates
[9] = MIC 0.03 μg/mL, 54 Streptococcus spp. isolates
[10] = MIC 0.06 μg/mL, 54 Streptococcus spp. isolates
[11] = MIC 2 μg/mL, 54 Streptococcus spp. isolates
[12] = MIC 4 μg/mL, 54 Streptococcus spp. isolates

In the case of `CN[C@H](CC(C)C)C(=O)N[C@H]1C(=O)N[C@@H](CC(N)=O)C(=O)N[C@H]2C(=O)N[C@H]3C(=O)N[C@H](C(=O)N[C@H](C(=O)O)c4cc(O)cc(O)c4-c4cc3ccc4O)[C@H](O)c3ccc(c(Cl)c3)Oc3cc2cc(c3O[C@@H]2O[C@H](CO)[C@@H](O)[C@H](O)[C@H]2O[C@H]2C[C@](C)(N)[C@H](O)[C@H](C)O2)Oc2ccc(cc2Cl)[C@H]1O` [vancomycin, Vancomycin], the “Cumulative percentage of isolates inhibited at MIC” value [1, 2] is reported as 100.0%, the “Cumulative percentage of isolates inhibited at MIC” value ([1]; listed as VAN) is reported as 50.0% and 96.3% and the MIC range (Streptococcus spp.; [3]) is reported as 0.25 to 1 µg/mL. The “% S” value (Streptococcus spp.; [4]) was 100%, the MIC50 (Streptococcus spp.; Streptococcus) was 0.25 µg/mL (≈ 0.173 µM) and the MIC90 (Streptococcus spp.; Streptococcus) was 0.5 µg/mL (≈ 0.345 µM). The Mode (Streptococcus spp.; [3]) was 0.25 µg/mL, the “% S” value (Streptococcus pyogenes) was 100% and the MIC range (Streptococcus pyogenes) was 0.25 to 0.5 µg/mL. The Mode (Streptococcus pyogenes) was 0.25 µg/mL, the MIC50 (Streptococcus pyogenes; Streptococcus pyogenes) was 0.25 µg/mL (≈ 0.173 µM) and the MIC90 (Streptococcus pyogenes; Streptococcus pyogenes) was 0.5 µg/mL (≈ 0.345 µM). The MIC range (Streptococcus agalactiae; [5]) was 0.25 to 1 µg/mL, the “% S” value (Streptococcus agalactiae; [5]) was 100% and the MIC50 (Streptococcus agalactiae; Streptococcus agalactiae) was 0.5 µg/mL (≈ 0.345 µM). The MIC90 (Streptococcus agalactiae; Streptococcus agalactiae) was 0.5 µg/mL (≈ 0.345 µM) and the Mode (Streptococcus agalactiae; [5]) was 0.5 µg/mL.

In the case of Penicillin, the “Cumulative percentage of isolates inhibited at MIC” value [1, 6] is reported as 35.2%, the “Number of test isolates at MIC” value [1, 6] is reported as 9 and the “Cumulative percentage of isolates inhibited at MIC” value [1, 2] is reported as 100.0%. For the same molecule, the “Cumulative percentage of isolates inhibited at MIC” value [1, 7] was 18.5%, the “Number of test isolates at MIC” value [1, 7] was 10 and the MIC50 (Streptococcus spp.; [3]) was 0.03 µg/mL. For the same molecule, the MIC90 (Streptococcus spp.; [3]) was 0.25 µg/mL, the MIC range (Streptococcus spp.; [3]) was ≤0.004-1^ μg/mL and the “% I” value (Streptococcus spp.; [4]) was 11% ^. For the same molecule, the “% S” value (Streptococcus spp.; [4]) was 89%, the Mode (Streptococcus spp.; [3]) was 0.03 µg/mL and the “% S” value (Streptococcus pyogenes) was 100%. The MIC50 (Streptococcus pyogenes) was less than 0.004 µg/mL, the MIC90 (Streptococcus pyogenes) was 0.008 µg/mL and the MIC range (Streptococcus pyogenes) was ≤0.004-0.03^ μg/mL. The Mode (Streptococcus pyogenes) was less than 0.004 µg/mL, the MIC50 (Streptococcus agalactiae; [5]) was 0.03 µg/mL and the MIC90 (Streptococcus agalactiae; [5]) was 0.03 µg/mL. The MIC range (Streptococcus agalactiae; [5]) was 0.015 to 0.06 µg/mL, the “% S” value (Streptococcus agalactiae; [5]) was 100% and the Mode (Streptococcus agalactiae; [5]) was 0.03 µg/mL.

For “piperacillin/tazobactam [piperacillin-tazobactam]”, the “Cumulative percentage of isolates inhibited at MIC” value [1, 8] was 1.9%, the “Number of test isolates at MIC” value [1, 8] was 1 and the “Cumulative percentage of isolates inhibited at MIC” value [1, 9] was 14.8%. The “Number of test isolates at MIC” value [1, 9] was 7, the “Cumulative percentage of isolates inhibited at MIC” value [1, 10] was 44.4% and the “Number of test isolates at MIC” value [1, 10] was 16. The “Cumulative percentage of isolates inhibited at MIC” value [1, 2] was 90.7%, the “Number of test isolates at MIC” value [1, 2] was 1 and the “Cumulative percentage of isolates inhibited at MIC” value [1, 11] was 94.4%. The “Number of test isolates at MIC” value [1, 11] was 2, the “Cumulative percentage of isolates inhibited at MIC” value [1, 12] was 100.0% and the “Number of test isolates at MIC” value [1, 12] was 3. For the same molecule, the MIC50 (Streptococcus spp.; [3]) was 0.12 µg/mL, the MIC90 (Streptococcus spp.; [3]) was 1 µg/mL and the MIC range (Streptococcus spp.; [3]) was 0.015 to 4 µg/mL. The Mode (Streptococcus spp.; [3]) was 0.25 µg/mL, the MIC50 (Streptococcus pyogenes) was 0.06 µg/mL and the MIC90 (Streptococcus pyogenes) was 0.12 µg/mL. The MIC range (Streptococcus pyogenes) was 0.03 to 0.25 µg/mL, the Mode (Streptococcus pyogenes) was 0.06 µg/mL and the MIC50 (Streptococcus agalactiae; [5]) was 0.25 µg/mL. The MIC90 (Streptococcus agalactiae; [5]) was 0.25 µg/mL, the MIC range (Streptococcus agalactiae; [5]) was 0.12 to 0.25 µg/mL and the Mode (Streptococcus agalactiae; [5]) was 0.25 µg/mL.
